{"source": "paper PMC5011961", "about": "“In vitro antimicrobial activities of animal-used quinoxaline 1,4-di-N-oxides against mycobacteria, mycoplasma and fungi” (BMC Veterinary Research, 2016)", "key": {"DF-1 cells": {"tested_on": "DF-1 cells", "assay": "Cytotoxicity assay (MTT)"}, "M. gallisepticum": {"tested_on": "M. gallisepticum", "assay": "Antimycoplasma assay, MIC in microtiter plates", "conditions": "Mycoplasmoides gallisepticum", "experimental": "(§1) Briefly, 96-well microtiter Sensititre plates containing stabilized and freeze-dried antimicrobials were used. Three wells on each plate were set as antimicrobial free growth control. Freshly thawed mycoplasma isolates with known titers were diluted in liquid medium until the number of organisms reached 10^4 color changing units/mL. 50 μL of the diluted culture was transferred into each well of the Sensititre plates. […] The plates were sealed using an adhesive foil and incubated at 36 °C for 14 days. The growth of M. hyopneumoniae was observed daily when the color of the medium changed from red to yellow (phenol red indicator), and the initial and final MICs were recorded."}, "M. tuberculosis complex": {"tested_on": "M. tuberculosis complex", "assay": "Combination susceptibility assay (checkerboard method), overall statements", "format": "cell-based", "conditions": "combined with rifampicin"}, "PRRSV": {"tested_on": "PRRSV", "assay": "Antiviral assay (CPE/MTT; adsorption inhibition, infection inhibition, virucidal)", "format": "cell-based, porcine reproductive and respiratory syndrome virus", "parameters": "key to IC50: “--”represent not detected owing to the low inhibition ratio", "conditions": "PRRSV, mean±SD of four experiments"}, "[1]": {"tested_on": "M. tuberculosis H37Rv ATCC 27294", "assay": "Microdilution alamar blue assay (MABA)", "format": "cell-based, Mycobacterium tuberculosis", "conditions": "Mycobacterium tuberculosis, read-out: MIC"}, "IBDV": {"tested_on": "IBDV", "assay": "Antiviral assay (CPE/MTT; adsorption inhibition, infection inhibition, virucidal)", "format": "cell-based, infectious bursal disease virus", "parameters": "key to IC50: “--” represent not detected owing to the low inhibition ratio", "conditions": "IBDV, mean±SD of four experiments"}, "Marc-145 cells": {"tested_on": "Marc-145 cells", "assay": "Cytotoxicity assay (MTT)"}, "[2]": {"tested_on": "M. tuberculosis H37Ra ATCC 25177", "assay": "Microdilution alamar blue assay (MABA)", "experimental": "Briefly, each of the above Mycobacterium strains was cultured at 37 °C in Middlebrook 7H9 broth supplemented with 0.2 % glycerol and 10 % Oleic Acid-Albumin-Dextrose-Catalase (Sigma, St Louis, MO, USA) until logarithmic growth was reached. About 6 × 10^6 CFU/mL inoculum of Mycobacterium strain was then added to the two fold serially diluted drug samples. The final concentration of DMSO in all assays was 2.5 % or less and this dilution also served as solvent control. The samples were assayed in triplicate. All tests were carried out in sterile flat bottom 96-well microplates. Each microplate was incubated for 5 days at 37 °C in a sealed plastic CO2-permeable bag. After 7 days of incubation, 32 μL of a mixture of freshly prepared Alamar Blue solution and 20 % sterile Tween-80 at 1:1 (v/v) were added to the growth-control well. The microplates were incubated at 37 °C for 24 h. […] A well-defined pink color was interpreted as positive bacterial growth, whereas a blue color indicated an absence of growth."}, "Candida parapsilosis": {"tested_on": "Candida parapsilosis", "assay": "Antifungal assay, macrobroth 2-fold serial dilution MIC", "conditions": "Lodderomyces parapsilosis"}, "Trichophyton rubrum": {"tested_on": "Trichophyton rubrum", "assay": "Antifungal assay, macrobroth 2-fold serial dilution MIC"}, "M. hyopneumoniae": {"tested_on": "M. hyopneumoniae", "assay": "Antimycoplasma assay, MIC in microtiter plates", "conditions": "Mesomycoplasma hyopneumoniae", "experimental": "as §1"}, "Epidermophyton floccosum": {"tested_on": "Epidermophyton floccosum", "assay": "Antifungal assay, macrobroth 2-fold serial dilution MIC"}, "Cryptococcus neoformans": {"tested_on": "Cryptococcus neoformans", "assay": "Antifungal assay, macrobroth 2-fold serial dilution MIC"}, "Mycoplasma gallisepticum": {"tested_on": "Mycoplasma gallisepticum", "assay": "Combination susceptibility assay (checkerboard method)", "format": "cell-based", "conditions": "combined with tetracyclines (tetracycline and doxycycline), M. gallisepticum"}, "[3]": {"tested_on": "M. tuberculosis H37Rv ATCC 27294", "parameters": "method as in PMID 14561478", "conditions": "previous report; cited from earlier work"}, "Aspergillus fumigatus": {"tested_on": "Aspergillus fumigatus", "assay": "Antifungal assay, macrobroth 2-fold serial dilution MIC"}, "M. bovis ATCC 19210": {"tested_on": "M. bovis ATCC 19210", "assay": "microbe, parasite or virus in culture", "format": "cell-based, Mycobacterium bovis", "conditions": "Mycobacterium tuberculosis variant bovis, ATCC19210"}, "Candida tropicalis": {"tested_on": "Candida tropicalis", "assay": "Antifungal assay, macrobroth 2-fold serial dilution MIC", "conditions": "Candida tropicalis"}, "PK-15 cells": {"tested_on": "PK-15 cells", "assay": "Cytotoxicity assay (MTT)"}, "PPV": {"tested_on": "PPV", "assay": "Antiviral assay (CPE/MTT; adsorption inhibition, infection inhibition, virucidal)", "format": "cell-based, porcine parvovirus", "parameters": "key to IC50: “--” represent not detected owing to the low inhibition ratio", "conditions": "PPV, mean±SD of four experiments"}, "Candida albicans": {"tested_on": "Candida albicans", "assay": "Antifungal assay, macrobroth 2-fold serial dilution MIC"}, "Microsporum canis": {"tested_on": "Microsporum canis", "assay": "Antifungal assay, macrobroth 2-fold serial dilution MIC"}}, "note": "Like-named read-outs stand apart in the source and are kept apart here.", "data": [{"smiles": "CC(=O)c1c(C)[n+]([O-])c2ccccc2[n+]1[O-]", "note": "[MEQ, mequindox]", "values": [{"measurement": "TC50", "setting": "DF-1 cells; DF-1, 72 h, MTT, mean ± SD, n = 4", "value": "40.01 ± 1.27", "unit": "µg/mL"}, {"measurement": "MNTC", "setting": "DF-1 cells; DF-1, maximum non-cytotoxic concentration (90 % cell viability)", "value": 2.0, "unit": "µg/mL"}, {"measurement": "MIC", "setting": "M. gallisepticum; M. gallisepticum BG44T (10^4ccu/mL)", "value": 16, "unit": "µg/mL"}, {"measurement": "MIC", "setting": "M. gallisepticum; M. gallisepticum MG-HS (10^6ccu/mL)", "value": 32, "unit": "µg/mL"}, {"measurement": "MIC", "setting": "M. gallisepticum; M. gallisepticum PG31 (10^8 ccu/mL)", "value": 16, "unit": "µg/mL"}, {"measurement": "FIC", "setting": "M. tuberculosis complex", "value": 0.75}, {"measurement": "IC50", "setting": "PRRSV; Inactivation", "value": "--"}, {"measurement": "IC50", "setting": "PRRSV; Prevention", "value": "--"}, {"measurement": "IC50", "setting": "PRRSV; Treatment", "value": "--"}, {"measurement": "MIC", "setting": "[1]", "value": 4, "unit": "µg/mL"}, {"measurement": "IC50", "setting": "IBDV; Inactivation", "value": "--"}, {"measurement": "IC50", "setting": "IBDV; Prevention", "value": "--"}, {"measurement": "IC50", "setting": "IBDV; Treatment", "value": "--"}, {"measurement": "TC50", "setting": "Marc-145 cells; Marc-145, 72 h, MTT, mean ± SD, n = 4", "value": "41.28 ± 1.28", "unit": "µg/mL"}, {"measurement": "MNTC", "setting": "Marc-145 cells; Marc-145, maximum non-cytotoxic concentration (90 % cell viability)", "value": 1.0, "unit": "µg/mL"}, {"measurement": "MIC", "setting": "[2]", "value": 32, "unit": "µg/mL"}, {"measurement": "MIC", "setting": "Candida parapsilosis", "value": 64, "unit": "µg/mL"}, {"measurement": "MIC", "setting": "Trichophyton rubrum", "value": "> 64", "unit": "µg/mL"}, {"measurement": "MIC", "setting": "Trichophyton rubrum; ATCC4438", "value": "> 64", "unit": "µg/mL"}, {"measurement": "MIC", "setting": "M. hyopneumoniae", "value": 32, "unit": "µg/mL"}, {"measurement": "MIC", "setting": "Epidermophyton floccosum", "value": "> 64", "unit": "µg/mL"}, {"measurement": "MIC", "setting": "Epidermophyton floccosum; CBS566094", "value": 64, "unit": "µg/mL"}, {"measurement": "MIC", "setting": "Cryptococcus neoformans", "value": 32, "unit": "µg/mL"}, {"measurement": "Combined effect", "setting": "Mycoplasma gallisepticum", "value": "additive (0.5 to 1, additive)"}, {"measurement": "MIC", "setting": "[3]", "value": 3.13, "unit": "µg/mL"}, {"measurement": "MIC", "setting": "Aspergillus fumigatus; A. fumigatus 3.5301, deep fungi", "value": "> 64", "unit": "µg/mL"}, {"measurement": "MIC", "setting": "Aspergillus fumigatus; A. fumigatus 3.5352, deep fungi", "value": "> 64", "unit": "µg/mL"}, {"measurement": "MIC", "setting": "M. bovis ATCC 19210", "value": 8, "unit": "µg/mL"}, {"measurement": "MIC", "setting": "Candida tropicalis; C. tropicalis 2.2735, deep fungi", "value": 64, "unit": "µg/mL"}, {"measurement": "MIC", "setting": "Candida tropicalis; C. tropicalis 7349, deep fungi", "value": "> 64", "unit": "µg/mL"}, {"measurement": "TC50", "setting": "PK-15 cells; PK-15, 72 h, MTT, mean ± SD, n = 4", "value": "17.86 ± 1.28", "unit": "µg/mL"}, {"measurement": "MNTC", "setting": "PK-15 cells; PK-15, maximum non-cytotoxic concentration (90 % cell viability)", "value": 0.5, "unit": "µg/mL"}, {"measurement": "IC50", "setting": "PPV; Inactivation", "value": "--"}, {"measurement": "IC50", "setting": "PPV; Prevention", "value": "--"}, {"measurement": "IC50", "setting": "PPV; Treatment", "value": "--"}, {"measurement": "MIC", "setting": "Candida albicans; C. albicans 2.4122, deep fungi", "value": 32, "unit": "µg/mL"}, {"measurement": "MIC", "setting": "Candida albicans; C. albicans 90028, deep fungi", "value": 64, "unit": "µg/mL"}, {"measurement": "MIC", "setting": "Microsporum canis", "value": "> 64", "unit": "µg/mL"}, {"measurement": "MIC", "setting": "Microsporum canis; CBS113480", "value": "> 64", "unit": "µg/mL"}]}]}
